Legend:
Hsp90 = assay: IC50 of compounds of the invention (Table 2; Her2 degradation Method 2, MV-4-11 cell survival, Cell Counting Kit-8); type: cell-based, human; settings: text calls it IC50 for Her2 degradation; Method 2: MV-4-11 cells, 72 hours; read-out: IC50 of compounds of the invention for inhibition of Hsp90
Procedure: MV-4-11 cells (20,000 cells/well) were cultured in 96-well plates and maintained at 37° C. for several hours. The cells were treated with a compound of the invention or 17AAG (a positive control) at various concentrations and incubated at 37° C. for 72 hours. Cell survival was measured with Cell Counting Kit-8 (Dojindo Laboratories, Cat. # CK04).

Her2 = assay: Degradation of Her2 in BT-474 cells, Western blot (Method 1); type: cell-based, human; settings: 0.5 μM, overnight
Procedure: Human high-Her2 breast carcinoma BT474 (HTB-20), SK-BR-3 (HTB-30) and MCF-7 breast carcinoma (HTB-22) from American Type Culture Collection, VA, USA were grown in Dulbecco's modified Eagle's medium with 4 mM L-glutamine and antibiotics (100 IU/ml penicillin and 100 ug/ml streptomycine;GibcoBRL). To obtain exponential cell growth, cells were trypsinized, counted and seeded at a cell density of 0.5×10^6 cells/ml regularly, every 3 days. All experiments were performed on day 1 after cell passage.
BT-474 cells are treated with 0.5 μM, 2 μM, or 5 μM of 17AAG (a positive control) or 0.5 μM, 2 μM, or 5 μM of a compound of the invention overnight in DMEM medium. After treatment, each cytoplasmic sample is prepared from 1×10^6 cells by incubation of cell lysis buffer (#9803, cell Signaling Technology) on ice for 10 minutes. The resulting supernatant used as the cytosol fractions is dissolved with sample buffer for SDS-PAGE and run on a SDS-PAGE gel, blotted onto a nitrocellulose membrane by using semi-dry transfer. Non-specific binding to nitrocellulose is blocked with 5% skim milk in TBS with 0.5% Tween at room temperature for 1 hour, then probed with anti-Her2/ErB2 mAb (rabbit IgG, #2242, Cell Signaling) and anti-Tubulin (T9026, Sigma) as housekeeping control protein. […]

| SMILES | IC50 (Hsp90) [µM] | Degradation of Her2 (Her2) |
| --- | --- | --- |
| NC(=O)c1nnc2n1CCCCc1cc(O)cc(O)c1-2 [Compound 2, 10,12-dihydroxy-5,6,7,8-tetrahydrobenzo[c][1,2,4]triazolo[4,3-a]azocine-3-carboxamide] | 12.2 | – |
| NC(=O)c1nnc2n1C/C=C\Cc1cc(O)cc(O)c1-2 [Compound 3, (Z)-10,12-dihydroxy-5,8-dihydrobenzo[c][1,2,4]triazolo[4,3-a]azocine-3-carboxamide] | 17 | – |
| NC(=O)c1nnc2n1CC(O)C(O)Cc1cc(O)cc(O)c1-2 (stereo not drawn) [Compound 4, 6,7,10,12-tetrahydroxy-5,6,7,8-tetrahydrobenzo[c][1,2,4]triazolo[4,3-a]azocine-3-carboxamide] | 24.3 | – |
| NC(=O)c1nnc2n1CC(Br)C(Br)Cc1cc(O)cc(O)c1-2 (stereo not drawn) [Compound 5, 6,7-dibromo-10,12-dihydroxy-5,6,7,8-tetrahydrobenzo[c][1,2,4]triazolo[4,3-a]azocine-3-carboxamide compound with dibromine (1:1)] | 23.4 | – |
| NC(=O)c1nnc2n1CCCc1cc(O)cc(O)c1-2 [Compound 12, 9,11-dihydroxy-6,7-dihydro-5H-benzo[c][1,2,4]triazolo[4,3-a]azepine-3-carboxamide] | 87.2 | – |
| C=CCNC1=C2C[C@@H](C)C[C@H](OC)[C@H](O)[C@@H](C)/C=C(\C)[C@H](OC(N)=O)[C@@H](OC)/C=C\C=C(/C)C(=O)NC(=CC1=O)C2=O [Compound 17AAG, 17-allylamino-17-demethoxygeldanamycin] | – | partial degradation |

Source: US9156836B2, “Tricyclic triazole compounds that modulate HSP90 activity” (Synta Pharmaceuticals Corp., priority 2008, dated 2015)
